Assay results taken from ChEMBL document CHEMBL4190257, “Discovery of phenylsulfonyl acetic acid derivatives with improved efficacy and safety as potent free fatty acid receptor 1 agonists for the treatment of type 2 diabetes” (Eur J Med Chem, 2017).

How the values were obtained:
[1] = target: T1, Free fatty acid receptor 1 (Homo sapiens, UniProt O14842); experiment: Agonist activity at human FFA1 receptor expressed in CHO cells assessed as increase in intracellular calcium flux by Fluo 4AM dye-based FLIPR assay; assay type: functional, cell-based
[2] = target: T1, Free fatty acid receptor 1; experiment: Agonist activity at human FFA1 receptor expressed in CHO cells assessed as increase in intracellular calcium flux at 10 uM by Fluo 4AM dye-based FLIPR assay relative to TAK-875; assay type: functional, cell-based
[3] = Octanol/phosphate buffer distribution coefficient, log D of the compound at 100 uM at pH 7.4 after 24 hrs by shake flask method; assay type: physicochemical
HepG2 = experiment: Apoptotic cytotoxicity in human HepG2 cells assessed as caspase-3/7 activity at 30 uM after 24 hrs by caspase-glo-3/7 assay relative to staurosporine; assay type: cell-based; conditions: hepg2, 24 h
[4] = Clearance in fasted Sprague-Dawley rat at 10 mg/kg, po administered as single dose measured up to 24 hrs post dose by LC-PDA-MS/MS analysis; assay type: ADME, organism-based; conditions: in vivo
[5] = Cmax in fasted Sprague-Dawley rat at 10 mg/kg, po administered as single dose measured up to 24 hrs post dose by LC-PDA-MS/MS analysis; assay type: ADME, organism-based; set-up: dose 10 mg/kg, route oral; conditions: in vivo
[6] = AUC (0 to 24 hrs) in fasted Sprague-Dawley rat at 10 mg/kg, po administered as single dose measured up to 24 hrs post dose by LC-PDA-MS/MS analysis; assay type: ADME, organism-based; set-up: time < 24 hr, dose 10 mg/kg, route oral; conditions: in vivo
[7] = Half life in fasted Sprague-Dawley rat at 10 mg/kg, po administered as single dose measured up to 24 hrs post dose by LC-PDA-MS/MS analysis; assay type: ADME, organism-based; conditions: in vivo
[8] = Drug level in Sprague-Dawley rat plasma treated with 2-((4-((2'-chloro-[1,1'-biphenyl]-3-yl)methoxy)phenyl)sulfonyl)acetic acid at 10 mg/kg, po measured up to 24 hrs post dose by LC-PDA-MS/MS analysis; assay type: ADME, organism-based; conditions: in vivo

T1 sequence (O14842 whole entry): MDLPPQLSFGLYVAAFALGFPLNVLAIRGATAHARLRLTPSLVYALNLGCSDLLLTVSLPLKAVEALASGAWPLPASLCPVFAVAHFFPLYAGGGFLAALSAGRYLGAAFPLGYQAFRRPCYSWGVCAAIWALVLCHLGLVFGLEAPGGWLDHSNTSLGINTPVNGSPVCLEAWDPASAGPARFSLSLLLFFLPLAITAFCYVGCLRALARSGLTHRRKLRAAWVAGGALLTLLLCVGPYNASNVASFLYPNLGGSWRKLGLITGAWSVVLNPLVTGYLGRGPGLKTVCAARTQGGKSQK

Structure (SMILES) | EC50 [1] | Efficacy [2] | further results
Cc1ccccc1-c1cccc(COc2ccc(S(=O)(=O)CC(=O)O)cc2)c1 | 46.8 nM | 113% | logD at 24 h, 100 µM [3]: 2.35; Activity (HepG2): -2.7%
CCOc1ccc(-c2cccc(COc3ccc(S(=O)(=O)CC(=O)O)cc3)c2)c(Cl)c1 | 51.3 nM | 105% | logD at 24 h, 100 µM [3]: 3.12; Activity (HepG2): 26.9%
Cc1nc(-c2ccccc2F)sc1COc1ccc(S(=O)(=O)CC(=O)O)cc1 | 550 nM | 75% | 
COc1cc(C)c(-c2cccc(COc3ccc(S(=O)(=O)C(C)C(=O)O)cc3)c2)c(C)c1 (configuration not stated) | > 1000 nM |  | 
COc1cc(C)c(-c2cccc(COc3ccc4c(c3)C(O)CC4CC(=O)O)c2)c(C)c1 (configuration not stated) | 550 nM | 83% | 
Cc1cc(OCCCS(C)(=O)=O)cc(C)c1-c1cccc(COc2ccc(CCC(=O)O)cc2)c1 | 15.5 nM | 116% | logD at 24 h, 100 µM [3]: 3.75; Activity (HepG2): 46.8%; CL/F [4]: 118 mL/min/kg; Cmax [5]: 517 ng/mL; AUC(0-t) at 24 h [6]: 1020 ng·h/mL; half-life [7]: 1.09 h
COCCOc1cc(C)c(-c2cccc(COc3ccc(S(=O)(=O)CC(=O)O)cc3)c2)c(C)c1 | 126 nM | 95% | 
O=C(O)CS(=O)(=O)c1ccc(OCc2cccc(-c3ccccc3C(F)(F)F)c2)cc1 | 52.5 nM | 108% | logD at 24 h, 100 µM [3]: 2.95; Activity (HepG2): 12.5%
CCCOc1cc(C)c(-c2cccc(COc3ccc(S(=O)(=O)CC(=O)O)cc3)c2)c(C)c1 | 69.2 nM | 104% | logD at 24 h, 100 µM [3]: 3.58; Activity (HepG2): 29.5%
Cc1ccc(-c2cccc(COc3ccc(S(=O)(=O)CC(=O)O)cc3)c2)c(Cl)c1 | 36.3 nM | 112% | logD at 24 h, 100 µM [3]: 3.05; Activity (HepG2): 17.6%
O=C(O)CS(=O)(=O)c1cccc(OCc2ccc(-c3ccccc3)cc2)c1 | > 1000 nM |  | 
O=C(CS(=O)(=O)c1ccc(OCc2cccc(-c3ccccc3Cl)c2)cc1)O[C@@H]1O[C@H](CO)[C@@H](O)[C@H](O)[C@H]1O |  |  | Drug metabolism [8]: Metabolite_Detected
Cc1nc(-c2ccccc2)sc1COc1ccc(S(=O)(=O)CC(=O)O)cc1 | 331 nM | 91% | 
COc1cc(C)c(-c2cccc(COc3ccc4c(c3)S(=O)(=O)CC4CC(=O)O)c2)c(C)c1 (configuration not stated) | > 1000 nM |  | 
O=C(CS(=O)(=O)c1ccc(OCc2cccc(-c3ccccc3Cl)c2)cc1)NCCS(=O)(=O)O |  |  | Drug metabolism [8]: Metabolite_Detected
CO/N=C(\COc1ccc(COc2ccc(S(=O)(=O)CC(=O)O)cc2)cc1)c1ccccc1 | 178 nM | 92% | 
O=C(O)c1cccc(-c2ccccc2Cl)c1 |  |  | Drug metabolism [8]: Metabolite_Detected
Cc1cc(OCC2CC2)cc(C)c1-c1cccc(COc2ccc(S(=O)(=O)CC(=O)O)cc2)c1 | 79.4 nM | 98% | logD at 24 h, 100 µM [3]: 3.46; Activity (HepG2): 26.3%
Cc1nc(-c2ccc(F)cc2)sc1COc1ccc(S(=O)(=O)CC(=O)O)cc1 | 191 nM | 92% | 
CCC(C(=O)O)S(=O)(=O)c1ccc(OCc2cccc(-c3c(C)cc(OC)cc3C)c2)cc1 (configuration not stated) | > 1000 nM |  | 
COc1cc(C)c(-c2cccc(COc3ccc4c(c3)SCC4CC(=O)O)c2)c(C)c1 (configuration not stated) | 123 nM | 98% | 
Cc1cc(OCC(C)C)cc(C)c1-c1cccc(COc2ccc(S(=O)(=O)CC(=O)O)cc2)c1 | 95.5 nM | 96% | logD at 24 h, 100 µM [3]: 3.94
Cc1cccc(C)c1-c1cccc(COc2ccc(S(=O)(=O)CC(=O)O)cc2)c1 | 66.1 nM | 103% | logD at 24 h, 100 µM [3]: 2.49; Activity (HepG2): -1.5%
O=C(O)CS(=O)(=O)c1ccc(OCc2cccc(-c3ccccc3F)c2)cc1 | 257 nM | 97% | 

Structure (SMILES) | EC50 [1] | Efficacy [2] | further results
Cc1noc(C)c1-c1ccc(Cl)c(COc2ccc(S(=O)(=O)CC(=O)O)cc2)c1 | 234 nM | 84% | 
Cc1nc(-c2cccc(Cl)c2)sc1COc1ccc(S(=O)(=O)CC(=O)O)cc1 | 251 nM | 85% | 
O=C(O)CS(=O)(=O)c1ccc(OCc2cccc(Oc3ccccc3)c2)cc1 | 97.7 nM | 101% | 
O=C(O)CS(=O)(=O)c1ccc(OCc2cccc(-c3ccccc3)c2)cc1 | 288 nM | 94% | logD at 24 h, 100 µM [3]: 2.13; Activity (HepG2): -1.9%
Cc1ccc(C)n1-c1cccc(COc2ccc(S(=O)(=O)CC(=O)O)cc2)c1 | 129 nM | 85% | 
COc1cc(C)c(-c2cccc(COc3ccc4c(c3)C(=O)CC4CC(=O)O)c2)c(C)c1 (configuration not stated) | 234 nM | 87% | 
Cc1noc(C)c1-c1cccc(COc2ccc(S(=O)(=O)CC(=O)O)cc2)c1C | 363 nM | 77% | 
Cc1nc(-c2cccc(F)c2)sc1COc1ccc(S(=O)(=O)CC(=O)O)cc1 | 275 nM | 84% | 
COc1cc(C)c(-c2cccc(COc3ccc(S(=O)(=O)CC(=O)O)cc3)c2)c(C)c1 | 57.5 nM | 106% | logD at 24 h, 100 µM [3]: 2.45; Activity (HepG2): -2.4%
COc1cc(C)c(-c2cccc(COc3ccc(S(=O)(=O)C4(C(=O)O)CC4)cc3)c2)c(C)c1 | > 1000 nM |  | 
Cc1cccc(C)c1-c1cccc(COc2ccc(SCC(=O)O)cc2)c1 | 195 nM | 95% | logD at 24 h, 100 µM [3]: 3.82
COc1ccccc1-c1cccc(COc2ccc(S(=O)(=O)CC(=O)O)cc2)c1 | 195 nM | 96% | 
COc1cc(C)c(-c2cccc(COc3ccc(S(=O)(=O)C(C)(C)C(=O)O)cc3)c2)c(C)c1 | > 1000 nM |  | 
Cc1cc(OCCCS(C)(=O)=O)cc(C)c1-c1cccc(COc2ccc(S(=O)(=O)CC(=O)O)cc2)c1 | 170 nM | 83% | 
Cc1ccccc1-c1ccc(COc2cccc(S(=O)(=O)CC(=O)O)c2)cc1 | > 1000 nM |  | 
Cc1cccc(-c2nc(C)c(COc3ccc(S(=O)(=O)CC(=O)O)cc3)s2)c1 | 214 nM | 82% | 
Cc1ccc(-c2c(C)noc2C)cc1COc1ccc(S(=O)(=O)CC(=O)O)cc1 | 427 nM | 73% | 
N#Cc1ccccc1-c1cccc(COc2ccc(S(=O)(=O)CC(=O)O)cc2)c1 | 457 nM | 78% | 
CCOc1cc(C)c(-c2cccc(COc3ccc(S(=O)(=O)CC(=O)O)cc3)c2)c(C)c1 | 63.1 nM | 107% | logD at 24 h, 100 µM [3]: 2.86; Activity (HepG2): 6.7%
Cc1noc(C)c1-c1cccc(COc2ccc(S(=O)(=O)CC(=O)O)cc2)c1 | 269 nM | 82% | 
CC(C)c1ccccc1-c1cccc(COc2ccc(S(=O)(=O)CC(=O)O)cc2)c1 | 74.1 nM | 101% | logD at 24 h, 100 µM [3]: 3.18
CO/N=C1\CC(CC(=O)O)c2ccc(OCc3cccc(-c4c(C)cc(OC)cc4C)c3)cc21 (configuration not stated) | > 1000 nM |  | 
Cc1noc(C)c1-c1cc(COc2ccc(S(=O)(=O)CC(=O)O)cc2)ccc1Cl | 214 nM | 81% | 
